Patent US6265445A, “Antiarrhythmic compounds” (priority 1997, dated 2001)

Experiments:
[1] = system: right ventricular papillary muscle of dogs; assay: Intracellular microelectrode technique: action potential parameters, ventricular papillary muscle; design: species or system mongrel dogs
Experimental: The method used is essentially in agreement with the method of Papp et al. [J. Cardiovascular Pharmacol. Ther. 1, 287-296 (1996)].
Right ventricular papillary muscle and Purkinje's fibres were prepared from the hearts of mongrel dogs (weighing 5 to 10 kg each). The preparations were placed into an organ bath (37° C.) containing modified Tyrode's nutrient medium. The preparations were excited by a basal frequency of 1 Hz. During the experiments, the frequency of stimulation was varied under broad limits by a computer-guided stimulator. The intracellular action potentials were registered by using glass capillary microelectrodes filled with 3 N potassium chloride solution (standard intracellular microelectrode techniques). The resting potential (RP), the amplitude of the action potential (APA) as well as the duration of the action potential (APD) were measured by using an IBM 386 compatible computer by means of an own-developed software. The compounds under test were directly added into the organ bath after dilution of the stock solutions according to the final concentrations desired. The effects of the compounds were observed after an incubation time of 30 to 40 minutes.

[2] = system: occlusion and reperfusion arrhythmias in anaesthetized rabbits; assay: Occlusion and reperfusion induced arrhythmias following acute coronary artery ligation in anaesthetized rabbits; type: in vivo, male rabbits; conditions: 0.03 mg/kg
Experimental: The method used is essentially in agreement with the method of Thiemermann et al. [Br. J. Pharmacol. 97, pp. 401-408 (1989)].
A loose surgical thread loop was placed round the left circumflex coronary artery of the heart following thoracotomy in pentobarbital (30 mg/kg i.v.) anaesthetized male rabbits (weighing 2 to 3 kg); both ends of the thread loop were led out from the chest through an elastic tube. Standard electrocardiogram was registered by using needle electrodes under the skin. The blood pressure of animals was continuously measured by using a catheter placed into the common carotid artery. After stabilization of the blood pressure and heart frequency, the loose loop was tightened to establish a regional myocardial ischaemia. After 10 minutes of ischaemia, the ligature was released and a reperfusion for 10 minutes was established. The survival, the incidence of arrhythmias, the time of onset of arrhythmia and the length of episodes were registered. The animals received physiological saline solution (control) intravenously (2 ml/kg) or 0.03 mg/kg of the compound of Example 15 or a 3 mg/kg dose of d-sotalol at 5 minutes before the occlusion.
By using this method, it can be stated whether the compound under test would be effective for the protection from arrhythmias following coronary artery ligation.

[3] = system: arrhythmias following coronary artery occlusion in conscious rats; assay: Occlusion arrhythmia following acute coronary artery ligation in conscious rats; type: in vivo, male rats
Description: The method used is essentially in agreement with the method of Lepran et al. [J. Pharmacol. Methods 9, pp. 219-230 (1983)].
During a previous operation, male rats weighing 340 to 360 g each were fitted with a loose surgical thread loop around the left descending coronary vessel, at about 2 mm from its origin. The ends of the loop thread were led out from the chest under the skin, then the surgical wound was closed. After complete recovery from this previous operation (7 to 8 days) acute myocardial ischaemia was induced by contracting the loose ligation in the conscious, freely moving animals. ECG was continuously registered by using bipolar chest electrodes before the ligation of the coronary artery and during the first 15 minutes of ischaemia. The ratio of survivals was determined and the developed arrhythmias were evaluated according to the Lambeth Convention [Walker et al.: Cardiovasc. Res. 22, 447-455 (1988)]. For evaluation of the arrhythmic episodes a score system was also employed by considering the severity of episodes on the basis of a score system from 0 to 6. Both d-sotalol and the substance of Example 15, respectively, were suspended in 1% methylcellulose and administered orally through a gastric sound at 1 hour before the compression of the coronary vessel. The control animals received a treatment with the same volume, i.e. 5 ml/kg of vehicle.

[4] = system: occlusion and reperfusion arrhythmias in anaesthetized dogs; assay: Occlusion and reperfusion arrhythmias following acute coronary ligation in anaesthetized dogs; type: in vivo, mongrel dogs
Experimental: The method used is essentially in agreement with the method of Vegh et al. [Basic Res. Cardiol. 82, 159-171 (1987)].
Mongrel dogs of both sexes weighing 10 to 20 kg each were anaesthetized by a mixture of chloralose (60 mg/kg) and urethane (200 mg/kg) and the animals were maintained on artificial respiration. After opening the chest, the ramus descendens anterior (LAD) branch of the left coronary artery of heart was prepared from the first main collateral branch and a loose loop from surgical thread was placed around it. During our experiments, the blood pressure of the animal was measured by using a cannule introduced to the left femoral artery and even the standard ECG parameters by using needle electrodes were continuously registered. The arrhythmias were induced by the occlusion for 25 minutes of a loop placed round the LAD. The survival after lethal arrhythmias and frequency of the arrhythmias were registered. The 28 dogs used in the experiments were divided into three groups. The compound of Example 15 was administered in a dose of 1 mg/kg to 8 animals; d-sotalol was given in a dose of 3 mg/kg to 10 animals by a single intravenous injection 10 minutes before compression of the coronary vessel. The control dogs (10 animals) received 5 ml of physiological saline solution in the same manner as the treated animals.
By using this method it can be stated whether the substance investigated would be effective for protection against arrhythmias following the ligation of the coronary artery.

[5] = Table 4, ventricular muscle, 5 μM, 1 Hz, N = 6
[6] = p.o. 25 mg/kg, first 15 minutes

Which results are given for `Cc1cccc(C)c1OCC(C)N(C)CCc1ccc(NS(C)(=O)=O)cc1.Cl` (stereo not shown) [Example 15, N-[4-[2-[N-Methyl-N-[2-(2,6-dimethylphenoxy)-1-methylethyl]amino]ethyl]phenyl]methanesulfonamide hydrochloride]?
APA (amplitude of the action potential) ([1]; 5 μM): 106 mV; APD50 (time of 50% repolarization) ([1]; 5 μM): 210 ms; APD90 (time of 90% repolarization) ([1]; 5 μM): 261 ms; RP (resting potential) ([1]; 5 μM): -85 mV; Recovery Ampl ([1]; 5 μM): 83.6 V/s; Recovery Ampl/Plateau ([1]; 5 μM): 0.35; Recovery Plateau ([1]; 5 μM): 245.5 V/s; Vmax (maximum rate of depolarization) ([1]; 5 μM): 203 V/s; difference between the effects of Example 15 and its enantiomers (in words) ([1]; 5 μM): No essential difference could be observed; Trecovery (recovery time constant of Vmax) ([1]; 5 μM, Gy: kinetics of rapid restoration): 270.1 ms; effect on APD in ventricular muscle (in words) ([1]; 5 μM, ventricular muscle of the dog): prolonged APD in the ventricular muscle of the dog; APA [1, 5]: 106.3 ± 2.0 mV; APD50 [1, 5]: 209.5 ± 7.1 ms; APD90 [1, 5]: 260.5 ± 6.5 mS; RP [1, 5]: -84.5 ± 1.3 mV; Vmax [1, 5]: 203.0 ± 11.4 V/s; Vmax time of recovery T [1, 5]: 270.1 ± 14.4 ms; Vmax time of recovery amplitude [1, 5]: 83.6 ± 13.5 V/s; Vmax time of recovery amplitude, percentage in parentheses [1, 5]: 35 ± 5%; Vmax time of recovery plateau phase [1, 5]: 245.5 ± 28.0 V/s; effect on duration of the action potential (in words) ([1]; concentrations of Table 2): simultaneous prolongation of duration of the action potential (APD); effect on Vmax (in words) ([1]; rapid recovery kinetics, concentrations of Table 2): mexiletine-like inhibition of Vmax; antiarrhythmic effect against reperfusion arrhythmias (in words) [2]: strong antiarrhythmic effect; heart rate (in words) ([3]; 25 mg/kg, first 15 minutes of myocardial infarction): statistically unchanged; antiarrhythmic effect (in words) ([3]; oral administration): showed an antiarrhythmic effect even after oral administration; Survival 15 minutes ([3]; p.o. 25 mg/kg): 8/50; Survival 16 hours ([3]; p.o. 25 mg/kg): 7/44; Occurrence of arrhythmias: Brady [3, 6]: 2/12; Occurrence of arrhythmias: Free (no arrhythmia was observed) [3, 6]: 3/19; Occurrence of arrhythmias: Other [3, 6]: 9/56; Occurrence of arrhythmias: VF [3, 6]: 10/63; Occurrence of arrhythmias: VT [3, 6]: 12/75; Arrhythmia Score ([3]; p.o. 25 mg/kg, score system from 0 to 6): 3.94 ± 0.64; Complete survival, animals ([4]; 1 mg/kg i.v.): 7/8; Complete survival, percent ([4]; 1 mg/kg i.v.): 87.5%; protection from arrhythmogenic effects of ligation and reperfusion (in words) ([4]; 1 mg/kg, versus d-sotalol 3 mg/kg): protected from the arrhythmogenic effects of ligation and reperfusion of the coronary artery to a higher degree than a dose of 3 mg/kg of d-sotalol; ES (extrasystole) ([4]; occlusion, 1 mg/kg i.v.): 36.6 ± 84.1; VF (ventricular fibrillation), animals ([4]; occlusion, 1 mg/kg i.v.): 1/8; VF (ventricular fibrillation), percent ([4]; occlusion, 1 mg/kg i.v.): 12.5%; VT (ventricular tachycardia), animals ([4]; occlusion, 1 mg/kg i.v.): 1/8; VT (ventricular tachycardia), percent ([4]; occlusion, 1 mg/kg i.v.): 12.5%; VF (ventricular fibrillation), animals ([4]; reperfusion, 1 mg/kg i.v.): 0/7; VF (ventricular fibrillation), percent ([4]; reperfusion, 1 mg/kg i.v.): 0%
